The values that follow come from article PMC8524670 (Pharmacology Research & Perspectives, 2021).

One may read the IC50 as the concentration that inhibits the measured activity by half. What is called Ki is a dissociation constant, usually derived from enzyme kinetics or from competition with a known ligand. Read a high Ki as weaker binding.

The subject of one data set is BCRP. The note with it: coadministration of zanubrutinib; cited from earlier work.
For data set [1], the target named is T1, CYP2D6 (Homo sapiens, UniProt P10635). Briefly: Time-dependent CYP inhibition in HLMs. The following applies: 10 µM zanubrutinib, 30 min pre-incubation with HLMs and NADPH.
T1 sequence (P10635 whole entry): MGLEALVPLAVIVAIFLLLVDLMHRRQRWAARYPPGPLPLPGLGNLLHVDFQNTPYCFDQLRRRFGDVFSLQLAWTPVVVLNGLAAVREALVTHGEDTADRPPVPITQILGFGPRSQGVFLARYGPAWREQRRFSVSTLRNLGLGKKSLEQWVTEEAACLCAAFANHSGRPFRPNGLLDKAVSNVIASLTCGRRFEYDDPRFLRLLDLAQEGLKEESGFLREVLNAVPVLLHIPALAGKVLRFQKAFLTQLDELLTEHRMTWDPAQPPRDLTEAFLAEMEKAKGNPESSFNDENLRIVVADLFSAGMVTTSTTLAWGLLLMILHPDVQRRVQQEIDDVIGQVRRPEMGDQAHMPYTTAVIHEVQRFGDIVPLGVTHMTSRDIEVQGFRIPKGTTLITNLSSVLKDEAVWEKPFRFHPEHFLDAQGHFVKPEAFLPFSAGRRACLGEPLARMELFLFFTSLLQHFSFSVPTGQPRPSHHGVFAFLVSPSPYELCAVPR
Data set [2] addresses T1, CYP2D6. Briefly: CYP reversible inhibition in HLMs. The class given is in vitro ADME.
The next data set deals with rCYP3A4 (Homo sapiens, UniProt P08684). Briefly: CYP phenotyping with recombinant CYPs. The note with it: 1 μM, only rCYP3A4 among 7 rCYPs.
rCYP3A4, sequence (P08684 whole entry): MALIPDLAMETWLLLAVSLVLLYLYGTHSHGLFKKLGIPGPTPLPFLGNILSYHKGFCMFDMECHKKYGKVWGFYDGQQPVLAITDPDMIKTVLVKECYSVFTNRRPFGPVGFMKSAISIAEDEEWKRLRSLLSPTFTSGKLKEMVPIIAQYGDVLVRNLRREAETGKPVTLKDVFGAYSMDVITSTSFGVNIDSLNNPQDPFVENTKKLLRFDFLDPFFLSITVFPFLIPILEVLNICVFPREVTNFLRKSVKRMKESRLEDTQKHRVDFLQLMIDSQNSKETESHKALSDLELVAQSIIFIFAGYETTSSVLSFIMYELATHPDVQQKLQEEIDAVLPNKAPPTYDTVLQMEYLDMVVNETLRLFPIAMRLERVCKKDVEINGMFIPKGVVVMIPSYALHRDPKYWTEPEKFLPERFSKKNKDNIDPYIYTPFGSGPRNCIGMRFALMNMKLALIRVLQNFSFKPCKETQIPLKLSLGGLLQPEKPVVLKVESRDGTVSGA
For another data set, the target named is T2, OAT3 (Homo sapiens, UniProt Q8TCC7).
T2 sequence (Q8TCC7 1-542): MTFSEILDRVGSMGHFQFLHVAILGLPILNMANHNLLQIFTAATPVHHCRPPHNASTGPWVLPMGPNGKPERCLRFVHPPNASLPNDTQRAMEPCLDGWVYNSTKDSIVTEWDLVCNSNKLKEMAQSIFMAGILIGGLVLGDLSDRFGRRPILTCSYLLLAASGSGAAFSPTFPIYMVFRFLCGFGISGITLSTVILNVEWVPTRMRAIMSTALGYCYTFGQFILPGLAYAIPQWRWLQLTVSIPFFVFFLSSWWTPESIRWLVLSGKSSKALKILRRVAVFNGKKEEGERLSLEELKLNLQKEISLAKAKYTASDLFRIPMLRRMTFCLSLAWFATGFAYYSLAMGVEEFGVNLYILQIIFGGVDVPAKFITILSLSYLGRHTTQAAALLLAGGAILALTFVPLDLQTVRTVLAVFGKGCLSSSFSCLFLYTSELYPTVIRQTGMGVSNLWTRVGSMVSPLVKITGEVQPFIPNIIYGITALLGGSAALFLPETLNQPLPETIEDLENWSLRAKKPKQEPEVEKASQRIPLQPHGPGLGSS
Briefly: SLC inhibition assay in HEK293 cells. In kind it is in vitro ADME.

Another data set concerns the target T3, OATP1B1 (Homo sapiens, UniProt Q9Y6L6).
T3 sequence (Q9Y6L6 1-691): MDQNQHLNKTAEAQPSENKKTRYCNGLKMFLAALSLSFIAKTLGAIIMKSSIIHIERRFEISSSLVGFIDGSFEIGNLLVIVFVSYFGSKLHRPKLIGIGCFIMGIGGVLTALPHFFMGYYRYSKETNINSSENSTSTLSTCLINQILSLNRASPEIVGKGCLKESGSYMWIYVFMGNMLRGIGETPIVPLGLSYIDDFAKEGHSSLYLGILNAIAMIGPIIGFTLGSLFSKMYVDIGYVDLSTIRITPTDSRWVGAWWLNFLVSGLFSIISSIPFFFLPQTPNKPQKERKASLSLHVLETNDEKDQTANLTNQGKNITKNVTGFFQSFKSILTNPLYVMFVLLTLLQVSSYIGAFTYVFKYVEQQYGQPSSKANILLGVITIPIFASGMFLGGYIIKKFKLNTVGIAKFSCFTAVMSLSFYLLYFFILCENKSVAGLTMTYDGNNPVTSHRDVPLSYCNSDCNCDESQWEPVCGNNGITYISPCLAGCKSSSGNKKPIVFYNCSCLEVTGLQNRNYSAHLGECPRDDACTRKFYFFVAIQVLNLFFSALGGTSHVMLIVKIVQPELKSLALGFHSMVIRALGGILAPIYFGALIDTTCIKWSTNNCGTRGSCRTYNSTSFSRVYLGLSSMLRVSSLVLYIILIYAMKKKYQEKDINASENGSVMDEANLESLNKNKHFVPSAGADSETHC
Briefly: SLC inhibition assay in HEK293 cells. The class given is in vitro ADME. The note with it: 0.05–5 µM.

The target in another data set is T4, OCT2 (Homo sapiens, UniProt O15244).
T4 sequence (O15244 1-555): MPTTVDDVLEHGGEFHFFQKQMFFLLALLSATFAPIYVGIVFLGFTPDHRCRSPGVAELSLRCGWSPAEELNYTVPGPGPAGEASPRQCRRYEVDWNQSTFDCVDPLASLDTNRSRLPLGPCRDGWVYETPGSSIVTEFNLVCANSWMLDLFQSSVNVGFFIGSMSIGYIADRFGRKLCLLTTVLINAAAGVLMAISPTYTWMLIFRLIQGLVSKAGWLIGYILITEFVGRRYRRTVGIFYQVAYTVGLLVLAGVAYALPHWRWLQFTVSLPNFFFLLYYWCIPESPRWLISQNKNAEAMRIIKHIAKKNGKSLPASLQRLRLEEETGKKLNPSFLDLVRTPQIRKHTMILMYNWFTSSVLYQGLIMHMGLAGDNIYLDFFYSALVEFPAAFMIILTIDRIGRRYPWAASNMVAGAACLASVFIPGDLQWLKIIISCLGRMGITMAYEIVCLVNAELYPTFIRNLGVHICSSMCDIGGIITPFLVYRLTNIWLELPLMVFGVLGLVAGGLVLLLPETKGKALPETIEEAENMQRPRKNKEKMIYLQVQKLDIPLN
Briefly: SLC transportation assay in HEK293 cells. The following applies: uptake ratios <2 at 0.1, 0.3, 5 µM. The class given is in vitro ADME.

A further data set addresses T5, OAT1 (Homo sapiens, UniProt Q4U2R8).
T5 sequence (Q4U2R8 1-563): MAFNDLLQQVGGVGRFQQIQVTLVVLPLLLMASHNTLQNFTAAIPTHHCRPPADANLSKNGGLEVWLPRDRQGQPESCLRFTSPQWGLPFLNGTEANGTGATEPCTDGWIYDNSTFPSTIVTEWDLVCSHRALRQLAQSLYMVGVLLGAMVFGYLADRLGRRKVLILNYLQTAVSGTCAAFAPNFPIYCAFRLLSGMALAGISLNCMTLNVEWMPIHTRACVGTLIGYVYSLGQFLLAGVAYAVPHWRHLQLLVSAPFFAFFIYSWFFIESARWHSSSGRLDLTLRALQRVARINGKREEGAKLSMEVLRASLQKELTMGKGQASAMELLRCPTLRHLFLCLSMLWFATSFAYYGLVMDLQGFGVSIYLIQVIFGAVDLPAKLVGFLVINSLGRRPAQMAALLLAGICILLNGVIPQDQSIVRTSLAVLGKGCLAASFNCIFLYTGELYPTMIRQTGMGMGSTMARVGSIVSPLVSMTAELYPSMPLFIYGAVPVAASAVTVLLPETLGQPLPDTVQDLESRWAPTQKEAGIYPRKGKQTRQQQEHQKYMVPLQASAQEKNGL
Briefly: SLC inhibition assay in HEK293 cells.

Setting [3] is: human, HEK293 cells overexpressing OAT3 (and MOCK cells), probe estrone sulfate.

On to `C=CC(=O)N1CCC([C@@H]2CCNc3c(C(N)=O)c(-c4ccc(Oc5ccccc5)cc4)nn32)CC1` [zanubrutinib], for which, in the data set on BCRP, the “Effect on exposure of BCRP probe rosuvastatin” value is listed as “did not significantly affect the exposure”. On CYP2D6 [1], the “Percent loss of enzymatic activity” value is −14.6%. Besides, the IC50 against CYP2D6 [2] was 72.9 µM. Moreover, the Ki came out at 36.5 µM on CYP2D6 [2] (Ki, dextromethorphan, Ki = IC50/2) and 28.8 µM at CYP2D6 [2] (Kiu, dextromethorphan, unbound Ki). At CYP2D6 [2] (dextromethorphan, DDI basic model, hepatic), this compound gave an R1 of 1.00. Also, the Ah at CYP2D6 [2] (dextromethorphan, static model term, liver inhibition) is 1.00. For the same compound, the “Disappearance of zanubrutinib with recombinant CYP” value on rCYP3A4 is given as “remarkable disappearance”. Also, the “Inhibition of uptake activity” value at OAT3 (0.05–5 µM), on OATP1B1 and at OAT1 (0.05–5 µM) was “not inhibited” throughout. The results for the activity at 0.05 µM on OAT3 (setting [3]) and on OAT1 (human) were 90 ± 4.2% and 103 ± 5.6%, respectively. The activity at 0.2 µM was determined as 97.8 ± 7.7% on OAT3 (setting [3]) and 106 ± 7.8% at OAT1 (human). The activity at 1 µM on OAT3 (setting [3]) stood at 113 ± 27%; at OAT1 (human) it was 109 ± 3.9%. Besides, the figures for the activity at 5 µM at OAT3 (setting [3]) and on OAT1 (human) were 199 ± 34% and 109 ± 3.3%, respectively. For the same compound, the Substrate status result on OCT2 is reported as “unlikely to be a substrate”.
